Results: publication PMC11397358, “Cytotoxic Activity of Novel GnRH Analogs Conjugated with Mitoxantrone in Ovarian Cancer Cells” (Molecules, 2024)

How the values were obtained:
SKOV-3 cells [1] = test: Annexin V / propidium iodide apoptosis assay by flow cytometry; type: cell-based, human; conditions: 1 μM, 2, 3 and 4 days; flow cytometry
Source text: We next evaluate the abilities of Con-3 and Con-7 at concentrations of 1 μΜ to induce cell death by determining the percentages of live, apoptotic and necrotic cells after treatment of SKOV-3 cells with the GnRH conjugates. As shown in Figure 5 and Figures S1–S3 on day 2, the majority of SKOV-3 cells were viable (Q4 quadrant), treated either with Con-3, Con-7 or mitoxantrone, whereas the percentage of apoptotic cells (late or early apoptotic) (Q1, Q2 quadrants) was only 10.1%, 10.87% and 13.1% after treatment with Con-3, Con-7 or mitoxantrone, respectively. […] Cell viability further decreased on day 4 with a concomitant increase in apoptosis. Specifically, the percentage of apoptotic cells was 53.5%, 59.6% and 54.3% after treatment with Con-3, Con-7 or mitoxantrone (Figure 5 and Figures S7–S9). In all phases, the percentage of the necrotic and late apoptotic cells (Q3 quadrant) was very small.
Figure 5 Determination of viability, apoptosis, or necrosis of SKOV-3 cells after their treatment with 1 μM Con-3, Con-7, or mitoxantrone for 2, 3, and 4 days at 37 °C. At the end of the incubation the cells were further incubated in binding buffer supplied by Biotium, (CF488A Apoptosis Detection kit) and analyzed on a flow cytometer (excitation 488 nm), in the FITC channel (filter 530 nm) for detection of the Annexin V-positive cellsand in the propidium iodide, or PI, channel (filter 616 nm) for detection of the PI-positive cells. The figures are from a representative experiment performed three times with similar results. A higher resolution of the images in Figure 5 is provided in the Supplementary Material (Figures S1–S9). TEXT PRINTED IN THE PICTURE: Con-3: Q3: 4,19 (Day 2); Q2: 7,12 (Day 2); Q4: 85,7 (Day 2); Q1: 2,98 (Day 2); Q3: 5,31 (Day3); Q2: 19,5 (Day3); Q4: 58,0 (Day3); Q1: 17,1 (Day3); Q3: 3,54 (Day4); Q2: 17,1 (Day4); Q4: 43,0 (Day4); Q1: 36,4 (Day4) | Con-7: Q3: 6,31 (Day 2); Q2: 7,74 (Day 2); Q4: 82,8 (Day 2); Q1: 3,13 (Day 2); Q3: 8,11 (Day3); Q2: 19,8 (Day3); Q4: 56,8 (Day3); Q1: 15,3 (Day3); Q3: 3,48 (Day4); Q2: 19,7 (Day4); Q4: 36,9 (Day4); Q1: 39,9 (Day4) | Mitoxantrone: Q3: 6,49 (Day 2); Q2: 9,40 (Day 2); Q4: 80,4 (Day 2); Q1: 3,67 (Day 2); Q3: 7,13 (Day3); Q2: 18,9 (Day3); Q4: 61,0 (Day3); Q1: 13,1 (Day3); Q3: 2,72 (Day4); Q2: 17,3 (Day4); Q4: 43,0 (Decimal sign as read) (Day4); Q1: 37,0 (Day4) DOUBTS OF THE COPYIST ABOUT THIS PICTURE: All quadrant values: the print is very small, and the decimal sign may be a comma or a point in every value / Con-3, Day 2, Q4: 85,7 or 86,7 / Con-3, Day 2, Q1: 2,98 or 2,96 / Con-3, Day3, Q3: 5,31 or 6,31 / Con-3, Day3, Q2: 19,5 or 19,6 / Con-3, Day3, Q4: 58,0 or 56,0 / Con-3, Day4, Q3: 3,54 or 3,64 / Con-3, Day4, Q1: 36,4 or 38,4 / Con-7, Day 2, Q3: 6,31 or 8,31 / Con-7, Day 2, Q4: 82,8 or 82,6 / Con-7, Day 2, Q1: 3,13 or 3,15 / Con-7, Day3, Q3: 8,11 or 6,11 / Con-7, Day3, Q2: 19,8 or 19,6 / Con-7, Day3, Q4: 56,8 or 58,8 / Con-7, Day3, Q1: 15,3 or 15,8 / Con-7, Day4, Q3: 3,48 or 3,46 / Con-7, Day4, Q4: 36,9 or 38,9 / Con-7, Day4, Q1: 39,9 or 38,9 / Mitoxantrone, Day 2, Q3: 6,49 or 8,49 / Mitoxantrone, Day 2, Q2: 9,40 or 8,40 / Mitoxantrone, Day 2, Q4: 80,4 or 60,4 / Mitoxantrone, Day 2, Q1: 3,67 or 3,87 / Mitoxantrone, Day3, Q2: 18,9 or 16,9 / Mitoxantrone, Day3, Q4: 61,0 or 81,0 / Mitoxantrone, Day3, Q1: 13,1 or 15,1 […]
SKOV-3 cells were seeded into 12-well plates at a density of 50,000 cells/well and incubated overnight in DMEM/F12 (1:1) containing 3.15 g/L glucose and 10% BCS, at 37 °C and 5% CO2. At the end of the incubation, the culture medium was replaced with a fresh one containing 3.15 g/L glucose and 2% BCS, with or without GnRH analogs or mitoxantrone at a concentration of 1 μΜ, and the cells were further incubated at 37 °C and 5% CO2 for 2, 3 and 4 days. […]

SKOV-3 cells [2] = test: Cell proliferation (MTT) assay; type: cell-based, human; conditions: over time (days 2–4) and at various concentrations
Procedure: The antiproliferative effects of GnRH-mitoxantrone conjugates, Con-3, and Con-7, were evaluated using the SKOV-3 cells. The Con-3 and Con-7 conjugates decreased the proliferation rate of SKOV-3 cells in a dose-dependent manner on days 2, 3, and 4 (Figure 3A–C).
Figure 3 Antiproliferative activity of the GnRH analogs. Decrease in the proliferation rate of the SKOV3 cells after their treatment with increasing concentrations of Con-3, Con-7, Con-P1 or Con-P2 for 2 days (A), 3 days (B) and 4 days (C) at 37 °C. At the end of the incubation, the cells were further incubated with 0.5 mg/mL MTT for 4 h at room temperature and the formed purple formazan crystals were quantified by measuring absorbance at 594 nm. The means ± S.E (triplicate determination) are shown from a representative experiment performed 3 times with similar results. The proliferation rates of cells treated with 1 μΜ of GnRH analogs were used to plot the graph D which depicts the decrease in cell growth over the incubation time (D). Statistical analysis was performed using one-way ANOVA.
At the end of the incubation, the cells were further incubated with 0.5 mg/mL MTT for 4 h at room temperature and the formed purple formazan crystals were quantified by measuring absorbance at 594 nm. The means ± S.E (triplicate determination) are shown from a representative experiment performed 3 times with similar results. […] Statistical analysis was performed using one-way ANOVA.
SKOV-3 cells (kindly provided by Prof. Dimitrios Mavroudis, University of Crete) were seeded into 96-well plates at a density of 6000 cells/well, in triplicates, and incubated overnight in Dulbecco’s modified Eagle’s medium/F12 (DMEM/F12) (1:1), containing 3.15 g/L glucose and 10% bovine calf serum (BCS, HyClone), at 37 °C and 5% CO2. At the end of the incubation, the culture medium was replaced with a fresh one containing 3.15 g/L glucose and 2% BCS, with or without increasing concentrations of GnRH analogs or mitoxantrone (0.1 nM–10 µM), and the cells were further incubated at 37 °C and 5% CO2 for 2, 3 and 4 days. Subsequently, (3-(4,5-dimethylthiazol-2-yl)-2,5- diphenyl tetrazolium bromide) (MTT) was added at a final concentration of 0.5 mg/mL, and the mixtures were incubated for 4 h at room temperature in the dark, allowing the viable cells to reduce the MTT to formazan crystals. The supernatants were removed, and the purple formazan crystals were dissolved in isopropanol containing 4% HCl (100 μL/well) by mixing thoroughly for 30 min in the dark, before the quantification of the absorbance at 594 nm using a Dynatech MicroElisa reader (Chantilly, VA, USA). The percentage of the proliferation rate (% proliferation rate) treated with a GnRH analog was determined based on the following equation: % proliferation rate = (absorbance of cells treated with a GnRH analog/absorbance of untreated cells) × 100. The % viability of the untreated cells (control) was defined as 100%. The % viabilities were analyzed by nonlinear regression analysis, using Prism 8.0 (GraphPad Software, Prism 8.0, San Diego, CA, USA).

human GnRH-R = target: T1, human GnRH-R (Homo sapiens, UniProt P30968); test: Calcium-based (fura-2) kinetic assay of GnRH-R agonism; type: cell-based; conditions: HEK293 cells transiently transfected with human GnRH-R; fura-2 ratio, 96-well, Flexstation 3; experiments performed a minimum of three times; read-out: EC50 for increase in intracellular [Ca2+]
T1 construct: host or cells: HEK293 (ATCC CRL-1573)
T1 sequence (P30968 1-328): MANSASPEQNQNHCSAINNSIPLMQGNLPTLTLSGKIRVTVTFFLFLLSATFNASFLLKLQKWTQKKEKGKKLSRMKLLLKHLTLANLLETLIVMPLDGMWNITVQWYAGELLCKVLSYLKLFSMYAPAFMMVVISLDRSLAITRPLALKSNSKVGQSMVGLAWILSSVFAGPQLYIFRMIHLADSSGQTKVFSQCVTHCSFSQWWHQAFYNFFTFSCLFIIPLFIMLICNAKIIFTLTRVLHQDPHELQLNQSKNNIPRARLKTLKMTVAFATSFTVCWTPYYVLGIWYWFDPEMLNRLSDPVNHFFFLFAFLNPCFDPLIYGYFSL
Procedure: For this purpose, fura-2-based kinetic assays to monitor the [Ca^2+] were performed in real-time using suspensions of HEK293 cells transiently transfected with the human GnRH-R (Figure 2A–I).
HEK293 cells transfected with the human GnRH-R served as a platform with which to test for agonist actions of individual test compounds. These cells were loaded with the ratiometric Ca^2+ indicator fura-2 so that the change in intracellular [Ca^2+] in response to agonist stimulation could be monitored in real time in a 96-well format. For these assays, the individual test compounds were administered at the 100 s time point.
Two days post-transfection, the HEK293 cells were harvested via trypsinization to obtain single-cell suspensions that were plated at 80% density on rat tail collagen-coated 96-well Costar 3904 plates for loading with the ratiometric Ca^2+ indicator fura-2. Measurements of the intracellular [Ca^2+] were performed using a Flexstation 3 microplate reader (Molecular Devices, Sunnyvale, CA, USA). Briefly, test solutions containing GnRH-R agonists were administered to individual wells of a 96-well plate using the automated pipetting feature of the Flexstation under computer control. […] Emitted light was detected at 505/15 nm, and the ratio of emission light intensity due to excitation at 335/9 and 375/9 nm was calculated. […]

| SMILES | effect on viability of SKOV-3 cells, in words (SKOV-3 cells [1]) | effect on proliferation of SKOV-3 cells, in words (SKOV-3 cells [2]) | EC50 (human GnRH-R) |
| --- | --- | --- | --- |
| CCNC(=O)[C@@H]1CCCN1C(=O)[C@H](CCCNC(=N)N)NC(=O)[C@H](CC(C)C)NC(=O)[C@@H](CCCCN)NC(=O)[C@H](Cc1ccc(O)cc1)NC(=O)[C@H](CO)NC(=O)[C@H](Cc1c[nH]c2ccccc12)NC(=O)[C@H](Cc1c[nH]cn1)NC(=O)[C@@H]1CCC(=O)N1 [Con-P1] | did not affect the viability of SKOV-3 cells | did not affect the proliferation of SKOV-3 cells |  |
| CCNC(=O)[C@@H]1CCCN1C(=O)[C@H](CCCNC(=N)N)NC(=O)[C@H](CC(C)C)NC(=O)[C@@H](CS)NC(=O)[C@H](Cc1ccc(O)cc1)NC(=O)[C@H](CO)NC(=O)[C@H](Cc1c[nH]c2ccccc12)NC(=O)[C@H](Cc1c[nH]cn1)NC(=O)[C@@H]1CCC(=O)N1 [Con-P2] |  |  | 0.67 nM |
